Experimental findings from patent US7517874B2 (priority 2007, dated 2009) are described below.

pEC50: −log10 of the molar value. Like-named read-outs stand apart in the source and are kept apart here.

For assay [1], the target named is human CB1 receptor (hCB1) (Homo sapiens, UniProt P21554). The assay is described as follows: cell-based. In kind it is cell-based. The following applies: for EC50: groups >100 nM-10 μM and >10 μM, cAMP, CHO-K1 hCB1, read-out: EC50 HCB1. A digest of the protocol: (§1)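 Agonism or inverse agonism was assessed as change in intracellular cAMP in CHO-K1 cells expressing human CB1 or rat CB2 (genomic DNA, pcDNA3.1).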
Sequence of human CB1 receptor (hCB1) (P21554 whole entry): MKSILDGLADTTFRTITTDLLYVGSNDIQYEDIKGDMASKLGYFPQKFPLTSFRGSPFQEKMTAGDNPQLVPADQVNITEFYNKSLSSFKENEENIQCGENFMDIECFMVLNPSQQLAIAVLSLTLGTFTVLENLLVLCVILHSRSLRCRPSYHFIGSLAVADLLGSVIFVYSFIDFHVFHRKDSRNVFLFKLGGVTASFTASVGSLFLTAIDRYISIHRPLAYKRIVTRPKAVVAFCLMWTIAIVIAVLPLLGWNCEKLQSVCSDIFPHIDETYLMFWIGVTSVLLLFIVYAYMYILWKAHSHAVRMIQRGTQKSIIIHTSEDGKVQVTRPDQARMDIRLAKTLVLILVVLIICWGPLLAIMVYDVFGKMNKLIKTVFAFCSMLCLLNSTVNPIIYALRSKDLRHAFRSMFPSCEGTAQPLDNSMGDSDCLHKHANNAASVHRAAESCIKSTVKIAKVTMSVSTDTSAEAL

Assay [2] has as its target T1, rat CB2 receptor (rCB2) (Rattus norvegicus, UniProt Q9QZN9).
T1 sequence (Q9QZN9 1-360): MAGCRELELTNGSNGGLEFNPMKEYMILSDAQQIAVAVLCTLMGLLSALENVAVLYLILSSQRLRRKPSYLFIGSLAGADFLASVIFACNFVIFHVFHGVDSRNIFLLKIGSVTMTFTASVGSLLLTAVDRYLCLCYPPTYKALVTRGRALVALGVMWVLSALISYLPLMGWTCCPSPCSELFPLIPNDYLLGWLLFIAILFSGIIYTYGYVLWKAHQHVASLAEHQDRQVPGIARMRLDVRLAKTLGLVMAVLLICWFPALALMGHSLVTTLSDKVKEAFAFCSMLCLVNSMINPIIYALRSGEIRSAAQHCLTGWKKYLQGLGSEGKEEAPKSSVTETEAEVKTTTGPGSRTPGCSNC
The experiment in a line: cell-based. Format: cell-based. The following applies: agonist or inverse agonist at rCB2. A digest of the protocol:
as §1

A word on the pEC50: it is the EC50 on a negative log10 scale, so that one unit is a factor of ten. `CC(C)CN1CCn2c(-c3ccccc3)nc(C(=O)N[C@@H](C)c3ccccc3)c2C1` [Compound 145, (S)-7-isobutyl-3-phenyl-N-(1-phenylethyl)-5,6,7,8-tetrahydroimidazo[1,5-a]pyrazine-1-carboxamide] showed a pEC50 in assay [1] of under 5.00. Also, the “+/− RCB2” value in assay [2] was “−”.

Compound `C[C@H](NC(=O)c1nc(-c2ccccc2)n2c1CN(CCO)CC2)c1ccccc1` [Compound 146, (S)-7-(2-hydroxyethyl)-3-phenyl-N-(1-phenylethyl)-5,6,7,8-tetrahydroimidazo[1,5-a]pyrazine-1-carboxamide] gave a negative-log EC50 (pEC50) in assay [1] of under 5.00. The “+/− RCB2” value in assay [2] was “−”.

Compound `CCN1CCn2c(-c3ccccc3)nc(C(=O)N[C@@H](C)c3ccccc3)c2C1` [Compound 147, (S)-7-ethyl-3-phenyl-N-(1-phenylethyl)-5,6,7,8-tetrahydroimidazo[1,5-a]pyrazine-1-carboxamide] gave a negative-log EC50 (pEC50) in assay [1] of under 5.00. Also, the “+/− RCB2” value in assay [2] is given as “−”.

Regarding `CNC(=O)[C@@H](NC(=O)c1nc(-c2ccccc2)n2c1CN(CC(C)C)CC2)C(C)(C)C` [Compound 148, (S)-N-(3,3-dimethyl-1-(methylamino)-1-oxobutan-2-yl)-7-isobutyl-3-phenyl-5,6,7,8-tetrahydroimidazo[1,5-a]pyrazine-1-carboxamide], the pEC50 in assay [1] is under 5.00. Also, the “+/− RCB2” value in assay [2] is recorded as “−”.

Compound `CCN1CCn2c(-c3ccccc3)nc(C(=O)N[C@H](C(=O)NC)C(C)(C)C)c2C1` [Compound 149, (S)-N-(3,3-dimethyl-1-(methyalmino)-1-oxobutan-2-yl)-7-ethyl-3-phenyl-5,6,7,8-tetrahydroimidazo[1,5-a]pyrazine-1-carboxamide] had a pEC50 in assay [1] of under 5.00. Besides, the “+/− RCB2” value in assay [2] is given as “−”.

In assay [1], `CC(C)CN1CCn2c(-c3ccccc3)nc(C(=O)Nc3ccccc3)c2C1` [Compound 150, 7-isobutyl-N,3-diphenyl-5,6,7,8-tetrahydroimidazo[1,5-a]pyrazine-1-carboxamide] had a pEC50 of under 5.00. Moreover, the “+/− RCB2” value in assay [2] is given as “−”.

The term EC50 denotes the concentration at which the effect is half-maximal. As to `O=C(Nc1ccccc1)c1nc(-c2ccccc2)n2c1CN(CCO)CC2` [Compound 151, 7-(2-hydroxyethyl)-N,3-diphenyl-5,6,7,8-tetrahydroimidazo[1,5-a]pyrazine-1-carboxamide], in assay [1], the half-maximal effective concentration (EC50) is over 10000 nM. Also, the “+/− RCB2” value in assay [2] was “−”.

In assay [1], `CCN1CCn2c(-c3ccccc3)nc(C(=O)Nc3ccccc3)c2C1` [Compound 152, 7-ethyl-N,3-diphenyl-5,6,7,8-tetrahydroimidazo[1,5-a]pyrazine-1-carboxamide] showed a pEC50 of under 5.00. Also, in assay [2], the “+/− RCB2” value is recorded as “−”.

In assay [1], `CNC(=O)[C@@H](NC(=O)c1nc(-c2ccccc2)n2c1CN(CCO)CC2)C(C)(C)C` [Compound 153, (S)-N-(3,3-dimethyl-1-(methylamino)-1-oxobutan-2-yl)-7-(2-hydroxyethyl)-3-phenyl-5,6,7,8-tetrahydroimidazo[1,5-a]pyrazine-1-carboxamide] had a pEC50 of under 5.00. For the same compound, in assay [2], the “+/− RCB2” value was “−”.

Regarding `CCCN1CCn2c(-c3ccccc3)nc(C(=O)Nc3ccccc3)c2C1` [Compound 154, N,3-diphenyl-7-propyl-5,6,7,8-tetrahydroimidazo[1,5-a]pyrazine-1-carboxamide], in assay [1], the pEC50 is under 5.00. The “+/− RCB2” value in assay [2] is “−”.

For `CC(C)CN1CCn2c(-c3ccccc3)nc(C(=O)NN3CCCCC3)c2C1` [Compound 155, 7-isobutyl-3-phenyl-N-(piperidin-1-yl)-5,6,7,8-tetrahydroimidazo[1,5-a]pyrazine-1-carboxamide], the pEC50 in assay [1] is under 5.00. For the same compound, the “+/− RCB2” value in assay [2] was “−”.

On to `O=C(NN1CCCCC1)c1nc(-c2ccccc2)n2c1CN(CCO)CC2` [Compound 156, 7-(2-hydroxyethyl)-3-phenyl-N-(piperidin-1-yl)-5,6,7,8-tetrahydroimidazo[1,5-a]pyrazine-1-carboxamide], for which the EC50 in assay [1] is over 10000 nM. For the same compound, in assay [2], the “+/− RCB2” value is reported as “−”.

On to `CC(C)CCNC(=O)c1nc(-c2ccc(Cl)cc2)n2c1CN(CC(C)C)CC2` [Compound 157, 3-(4-chlorophenyl)-7-isobutyl-N-isopentyl-5,6,7,8-tetrahydroimidazo[1,5-a]pyrazine-1-carboxamide], for which the pEC50 in assay [1] is under 5.00. In addition, the “+/− RCB2” value in assay [2] is given as “−”.

In the case of `CCN1CCn2c(-c3ccc(Cl)cc3)nc(C(=O)NCCC(C)C)c2C1` [Compound 158, 3-(4-chlorophenyl)-7-ethyl-N-isopentyl-5,6,7,8-tetrahydroimidazo[1,5-a]pyrazine-1-carboxamide], in assay [1], the pEC50 is under 5.00. Besides, the “+/− RCB2” value in assay [2] is “−”.

Turning to `CC(C)CCNC(=O)c1nc(-c2ccc(Cl)cc2)n2c1CN(CCO)CC2` [Compound 159, 3-(4-chlorophenyl)-7-(2-hydroxyethyl)-N-isopentyl-5,6,7,8-tetrahydroimidazo[1,5-a]pyrazine-1-carboxamide], the EC50 in assay [1] was over 10000 nM. The “+/− RCB2” value in assay [2] is on record as “−”.

For the compound `CC(C)CN1CCn2c(-c3ccc(Cl)cc3)nc(C(=O)N[C@H](CO)C(C)(C)C)c2C1` [Compound 160, (S)-3-(4-chlorophenyl)-N-(1-hydroxy-3,3-dimethylbutan-2-yl)-7-isobutyl-5,6,7,8-tetrahydroimidazo[1,5-a]pyrazine-1-carboxamide], the pEC50 in assay [1] is under 5.00. Further, the “+/− RCB2” value in assay [2] is recorded as “−”.

In turn, `CCN1CCn2c(-c3ccc(Cl)cc3)nc(C(=O)N[C@H](CO)C(C)(C)C)c2C1` [Compound 161, (S)-3-(4-chlorophenyl)-7-ethyl-N-(1-hydroxy-3,3-dimethylbutan-2-yl)-5,6,7,8-tetrahydroimidazo[1,5-a]pyrazine-1-carboxamide] had a pEC50 in assay [1] of under 5.00. Further, the “+/− RCB2” value in assay [2] is given as “−”.

As to `CC(C)(C)[C@@H](CO)NC(=O)c1nc(-c2ccc(Cl)cc2)n2c1CN(CCO)CC2` [Compound 162, (S)-3-(4-chlorophenyl)-N-(1-hydroxy-3,3-dimethylbutan-2-yl)-7-(2-hydroxyethyl)-5,6,7,8-tetrahydroimidazo[1,5-a]pyrazine-1-carboxamide], the pEC50 in assay [1] was under 5.00. In addition, the “+/− RCB2” value in assay [2] was “−”.

Compound `CC(C)CN1CCn2c(-c3ccccc3)nc(C(=O)N[C@H](C)C3CCCCC3)c2C1` [Compound 163, (R)-N-(1-cyclohexylethyl)-7-isobutyl-3-phenyl-5,6,7,8-tetrahydroimidazo[1,5-a]pyrazine-1-carboxamide] had a negative logarithm of the EC50 (pEC50) in assay [1] of under 5.00. Besides, in assay [2], the “+/− RCB2” value is “−”.

`CCN1CCn2c(-c3ccccc3)nc(C(=O)N[C@H](C)C3CCCCC3)c2C1` [Compound 164, (R)-N-(1-cyclohexylethyl)-7-ethyl-3-phenyl-5,6,7,8-tetrahydroimidazo[1,5-a]pyrazine-1-carboxamide] showed a negative-log EC50 (pEC50) in assay [1] of under 5.00. The “+/− RCB2” value in assay [2] is reported as “−”.

`CC(C)CN1CCn2c(-c3ccccc3)nc(C(=O)NC3CCCCC3)c2C1` [Compound 165, N-cyclohexyl-7-isobutyl-3-phenyl-5,6,7,8-tetrahydroimidazo[1,5-a]pyrazine-1-carboxamide]: in assay [1], the negative logarithm of the EC50 (pEC50) is under 5.00. Further, the “+/− RCB2” value in assay [2] was “−”.

For `O=C(NC1CCCCC1)c1nc(-c2ccccc2)n2c1CN(CCO)CC2` [Compound 166, N-cyclohexyl-7-(2-hydroxyethyl)-3-phenyl-5,6,7,8-tetrahydroimidazo[1,5-a]pyrazine-1-carboxamide], in assay [1], the concentration giving a half-maximal response (EC50) was over 10000 nM. Besides, the “+/− RCB2” value in assay [2] is “−”.
